Data: publication PMC8986608 (Journal of the American Chemical Society, 2022)

Target: ScoE (Streptomyces coeruleorubidus, UniProt A0A3B6UEU3)
Details: alpha-KG, Fe(II)

Km: 369 ± 40 µM
Compound: C[C@H](CC(=O)O)/N=C/C(=O)O [compound 2, imine CABA]
